In one assay the test system is C. jejuni. In words: MIC testing by broth dilution, C. jejuni. It is filed as cell-based, Campylobacter jejuni. Put shortly:
(§1)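 Compounds were diluted serially from 32 μg/ml to 0.06 in medium holding a standard inoculum, then visually scored at 24 h, and the lowest well without growth was recorded. Media were LB for E. coli, Trypticase Soy for S. epidermidis and Brain Heart Infusion for C. jejuni. C. difficile zones were measured anaerobically relative to NTZ.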

Another assay has as its system S. epidermidis biofilm. In words: S. epidermidis biofilm assay (activity tables). It is filed as cell-based, Staphylococcus epidermidis. To be noted: for MIC S. epidermidis Biofilm: Thiophene analogues table. A digest of the protocol:
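Overnight TSB cultures diluted to OD600 0.01 and grown static with compound (triplicate) at 37° C for 16 h; turbidity recorded for growth. Biofilm: washed wells ethanol-fixed, stained with 0.5% crystal violet, A570 read before and after 95% ethanol extraction; mean ± SD.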

The test system of the next assay is E. coli biofilm. The assay is described as follows: E. coli biofilm assay (activity tables). Format: cell-based, Escherichia coli. Put shortly: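 After 24 h static culture at 37 °C in wells containing NTZ, strain 042 (1:100 inoculum) biofilm was quantified by 0.5% crystal violet absorbance at 570 nm. Planktonic growth was taken from turbidity or LB plate counts as cfu/ml; all runs triplicate, reported as mean and SD.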

The next assay deals with S. epidermidis. The assay is described as follows: MIC testing by broth dilution, S. epidermidis plank. It is filed as cell-based, Staphylococcus epidermidis. A digest of the protocol:
as §1
(In general: Broth dilution looks for growth in wells or tubes with falling amounts of substance.)

Assay [1] has as its system C. difficile. In words: MIC by agar dilution, C. difficile. It is filed as cell-based, Clostridium difficile. As for the experimental part: A standard broth dilution protocol was used in 96 well microplates containing a standard dilution of the microorganism to be tested in 100 microliters of the appropriate medium. Appropriate medium: E. coli, LB medium; Staphylococcus strains, Trypticase Soy; and for H. pylori and C. jejuni, Brain Heart Infusion. The compounds to be tested were set at 32 μg/ml in 200 microliters in well one and then serially diluted to provide a range from 32 to 0.06. The wells were scored visually at 24 h. The well where there was no growth was recorded as the MIC. […]
(§2) Representative compounds of the invention were tested in a series of assays against a series of organisms as described above. […] The organisms tested include, C. difficile, H. pylori, C. jejuni, MRSA, S. epidermidis, and E. coli. S. epidermidis and E. coli were tested in the plank and biofilm assay. A disk diffusion assay was also used for C. difficile. Direct PFOR enzyme assays were also performed. All analogues and derivatives were not tested on every organism in every type of assay (the “-” in each table means that it was not tested).
In general terms: In agar dilution, organisms are placed on agar that contains the substance at set levels.

Another assay has as its system E. coli. In words: MIC testing by broth dilution, E. coli plank. It is filed as cell-based, Escherichia coli. A digest of the protocol:
as §1

The next assay has as its system H. pylori. The assay is described as follows: MIC testing by broth dilution, H. pylori. Format: cell-based, Helicobacter pylori. A digest of the protocol: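 Broth dilution MIC determination against H. pylori: a standard inoculum in 100 microliters of Brain Heart Infusion medium was placed in 96 well microplates. Test compounds began at 32 μg/ml in 200 microliters in well one and were serially diluted over a 32 to 0.06 range. After 24 h, plates were scored by eye and the first well without growth was recorded as the MIC.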

The test system of another assay is MRSA. The assay is described as follows: MIC testing by broth dilution, MRSA. Format: cell-based, Staphylococcus aureus. Put shortly: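 Values are broth-dilution MICs, defined as the well showing no growth on visual reading after 24 h; the tested range was 32 to 0.06 μg/ml, in organism-specific media (LB, Trypticase Soy, Brain Heart Infusion). The C. difficile entries come instead from anaerobic Kirby-Bauer disk zones, normalised to NTZ.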

For assay [2], the system named is PFOR (pyruvate ferredoxin oxidoreductase). The assay is described as follows: Direct PFOR enzyme assay. Format: biochemical. As for the experimental part:
as §2

The test system of assay [3] is C. difficile. In words: Disk diffusion (Kirby Bower), C. difficile. Conditions: for Disk Diff (%) C. difficile: Nitazoxanide = 100, Thiophene analogues table. Format: cell-based, Clostridium difficile. A digest of the protocol:
as §1
For orientation: In agar diffusion tests the substance spreads into inoculated agar from a disc or well.

The mark [4] stands for this setting: broth dilution, Brain Heart Infusion, 24 h, read-out: MIC (μM) C. jejuni.
[5] abbreviates: biofilm, read-out: MIC (μM) E. coli Biofilm.
Where [6] appears, read: broth dilution, Trypticase Soy, 24 h, read-out: MIC (μM) S. epidermidis Plank.
Where [7] appears, read: agar dilution, anaerobic, Wilkins Chalgrin agar, read-out: MIC (μM) C. difficile.
Setting [8] is: broth dilution, LB medium, 24 h, read-out: MIC (μM) E. coli Plank.
Where [9] appears, read: broth dilution, Brain Heart Infusion, 24 h, read-out: MIC (μM) H. pylori.
Where [10] appears, read: broth dilution, Trypticase Soy, 24 h, read-out: MIC (μM) MRSA.
Where [11] appears, read: Thiophene analogues table, read-out: MIC C. jejuni.
The mark [12] stands for this setting: biofilm, Thiophene analogues table, read-out: MIC E. coli Biofilm.
The mark [13] stands for this setting: planktonic, Thiophene analogues table, read-out: MIC S. epidermidis Plank.
[14] abbreviates: Thiophene analogues table, read-out: MIC C. difficile.
[15] abbreviates: planktonic, Thiophene analogues table, read-out: MIC E. coli Plank.
[16] abbreviates: Thiophene analogues table, read-out: MIC H. pylori.
Setting [17] is: Thiophene analogues table, read-out: MIC MRSA.

≈ marks a conversion by molar mass, not a printed value. Like-named read-outs stand apart in the source and are kept apart here.

As to `O=C(Nc1ncc([N+](=O)[O-])s1)c1ccc(C(=O)C(F)(F)F)cc1` [VPC161175], the MIC in the assay on C. jejuni (setting [4]) amounted to 69.5 µM (≈ 24 µg/mL); in the assay on E. coli biofilm (setting [5]) it was 92.7 µM (≈ 32 µg/mL); in the assay with S. epidermidis (setting [6]), 92.7 µM (≈ 32 µg/mL); in the assay with C. difficile [1] (setting [7]), 23.2 µM (≈ 8.01 µg/mL); in the assay with E. coli (setting [8]), 92.7 µM (≈ 32 µg/mL); in the assay with H. pylori (setting [9]), 4.3 µM (≈ 1.48 µg/mL). The MIC in the assay with MRSA (setting [10]) came out at 92.7 µM (≈ 32 µg/mL). The “MIC (μM) S. epidermidis Biofilm” value against S. epidermidis biofilm came to 92.7 µM (≈ 32 µg/mL).
As to `O=C(Nc1ncc([N+](=O)[O-])s1)c1cccs1` [VPC161195, N-(5-Nitrothiazol-2-yl)thiophene-2-carboxamide], the MIC in the assay with C. jejuni (Campylobacter jejuni, Thiophene analogues table, read-out: MIC C. jejuni) came to 2.9 µM (≈ 0.74 µg/mL); in the assay on E. coli biofilm (Escherichia coli, biofilm, Thiophene analogues table, read-out: MIC E. coli Biofilm) it was 125 µM (≈ 32 µg/mL); in the assay with C. difficile [1] (Clostridioides difficile, Thiophene analogues table, read-out: MIC C. difficile), 31.3 µM (≈ 7.99 µg/mL); in the assay on E. coli (Escherichia coli, planktonic, Thiophene analogues table, read-out: MIC E. coli Plank), 125 µM (≈ 32 µg/mL); in the assay with H. pylori (Helicobacter pylori, Thiophene analogues table, read-out: MIC H. pylori), 2.9 µM (≈ 0.74 µg/mL); in the assay on MRSA (Staphylococcus aureus, MRSA, Thiophene analogues table, read-out: MIC MRSA) it was 15.7 µM (≈ 4.01 µg/mL). Further, the “MIC S. epidermidis Biofilm” value against S. epidermidis biofilm worked out at 62.7 µM (≈ 16 µg/mL). Further, the “PFOR inhibition relative to nitazoxanide (=100)” value in assay [2] (Thiophene analogues table) was 88%. In the assay with C. difficile [3], the “Disk Diff (%) C. difficile” value was 97%.
For `O=C(Nc1ncc([N+](=O)[O-])s1)c1cc2ccccc2s1` [VPC161180], the MIC in the assay on C. jejuni (setting [11]) is on record as 9.8 µM (≈ 2.99 µg/mL); in the assay with E. coli biofilm (setting [12]), 104.8 µM (≈ 32 µg/mL); with S. epidermidis (setting [13]) it was 13.1 µM (≈ 4 µg/mL); in the assay on C. difficile [1] (setting [14]), 13.1 µM (≈ 4 µg/mL); with E. coli (setting [15]), 104.8 µM (≈ 32 µg/mL); in the assay on H. pylori (setting [16]) it was 2.5 µM (≈ 0.763 µg/mL). Also, the MIC in the assay on MRSA (setting [17]) turned out to be 6.6 µM (≈ 2.02 µg/mL). The “MIC S. epidermidis Biofilm” value with S. epidermidis biofilm is 19.7 µM (≈ 6.02 µg/mL). Moreover, the “Disk Diff (%) C. difficile” value in the assay on C. difficile [3] is listed as 81%.
Turning to `O=C(Nc1ncc([N+](=O)[O-])s1)c1cc(Cl)sc1Cl` [VPC161199], the MIC is reported as 2.3 µM (≈ 0.746 µg/mL) in the assay on C. jejuni (setting [11]); 24.7 µM (≈ 8.01 µg/mL) with E. coli biofilm (setting [12]); 12.3 µM (≈ 3.99 µg/mL) in the assay on S. epidermidis (setting [13]); 12.3 µM (≈ 3.99 µg/mL) in the assay on C. difficile [1] (setting [14]); 98.7 µM (≈ 32 µg/mL) in the assay on E. coli (setting [15]); 1.5 µM (≈ 0.486 µg/mL) in the assay with H. pylori (setting [16]). The MIC with MRSA (setting [17]) is on record as 6.2 µM (≈ 2.01 µg/mL). Further, in the assay on S. epidermidis biofilm, the “MIC S. epidermidis Biofilm” value stood at 24.7 µM (≈ 8.01 µg/mL). The “PFOR inhibition relative to nitazoxanide (=100)” value in assay [2] (Thiophene analogues table) worked out at 48%. Further, the “Disk Diff (%) C. difficile” value with C. difficile [3] is recorded as 89%.
As for `O=C(Nc1ncc([N+](=O)[O-])s1)c1cccc(C(F)(F)F)c1` [VPC161183, N-(5-Nitrothiazol-2-yl)-3-(trifluoromethyl)benzamide], the MIC was 4.7 µM (≈ 1.49 µg/mL) in the assay on C. jejuni (Campylobacter jejuni, 24 h, read-out: MIC (μM) C. jejuni); 31.5 µM (≈ 9.99 µg/mL) in the assay with E. coli biofilm (Escherichia coli, read-out: MIC (μM) E. coli Biofilm); 12.6 µM (≈ 4 µg/mL) in the assay with C. difficile [1] (Clostridioides difficile, read-out: MIC (μM) C. difficile); 37.8 µM (≈ 12 µg/mL) in the assay on E. coli (Escherichia coli, 24 h, read-out: MIC (μM) E. coli Plank); 3.5 µM (≈ 1.11 µg/mL) with H. pylori (Helicobacter pylori, 24 h, read-out: MIC (μM) H. pylori); 3.2 µM (≈ 1.02 µg/mL) with MRSA (Staphylococcus aureus, MRSA, 24 h, read-out: MIC (μM) MRSA). Further, in the assay with S. epidermidis biofilm, the “MIC (μM) S. epidermidis Biofilm” value was 25.2 µM (≈ 7.99 µg/mL). For the same compound, the “PFOR inhibition relative to nitazoxanide (=100)” value in assay [2] is reported as 87%. Further, the “Disk Diffusion (%) C. difficile” value in the assay on C. difficile [3] (zone of inhibited growth as relative ratio to the zone for NTZ) stood at 95 ± 2%.
For the compound `COc1cc([N+](=O)[O-])ccc1C(=O)Nc1ncc([N+](=O)[O-])s1` [VPC161093], the MIC with C. jejuni (setting [4]) was determined as 9.3 µM (≈ 3.02 µg/mL); in the assay on E. coli biofilm (setting [5]) it was 98.7 µM (≈ 32 µg/mL); in the assay on S. epidermidis (setting [6]) it was 12.3 µM (≈ 3.99 µg/mL); in the assay with C. difficile [1] (setting [7]) it was 98.7 µM (≈ 32 µg/mL); in the assay with E. coli (setting [8]), 98.7 µM (≈ 32 µg/mL); with H. pylori (setting [9]), 0.6 µM (≈ 0.195 µg/mL). The MIC in the assay with MRSA (setting [10]) is listed as 98.7 µM (≈ 32 µg/mL). Moreover, the “MIC (μM) S. epidermidis Biofilm” value with S. epidermidis biofilm amounted to 12.3 µM (≈ 3.99 µg/mL). In addition, the “PFOR inhibition relative to nitazoxanide (=100)” value in [2] worked out at 115%.

For the origin of these results see patent US8835644B2, “Broad spectrum benzothiophene-nitrothiazolide and other antimicrobials” (University of Virginia Patent Foundation, priority 2009, dated 2014).
